ΔTm data for seven compounds are collected here from ChEMBL document CHEMBL1145498, “A systematic interaction map of validated kinase inhibitors with Ser/Thr kinases” (Proc Natl Acad Sci U S A, 2007).

Assay [1] has as its target 5'-AMP-activated protein kinase catalytic subunit alpha-2 (Homo sapiens) (UniProt P54646).
Assay [2] addresses Calcium/calmodulin-dependent protein kinase type II subunit alpha (Homo sapiens) (UniProt Q9UQM7).
Assay [3] deals with Cyclin-dependent kinase 2 (Homo sapiens, UniProt P24941).
Assay [4] deals with Cyclin-dependent kinase-like 1 (Homo sapiens) (UniProt Q00532).
Assay [5] has as its target Serine/threonine-protein kinase Chk2 (Homo sapiens, UniProt O96017).
The target in assay [6] is Dual specificity protein kinase CLK3 (Homo sapiens) (UniProt P49761).
Assay [7] addresses Casein kinase I isoform gamma-2 (Homo sapiens) (UniProt P78368).
For assay [8], the target named is Casein kinase I isoform gamma-3 (Homo sapiens) (UniProt Q9Y6M4).
Assay [9] addresses Tyrosine-protein kinase JAK1 (Homo sapiens) (UniProt P23458).
For assay [10], the target named is Mitogen-activated protein kinase 6 (Homo sapiens) (UniProt Q16659).
Assay [11] has as its target Serine/threonine-protein kinase PAK 5 (Homo sapiens) (UniProt Q9P286).
In assay [12] the target is Serine/threonine-protein kinase PAK 6 (Homo sapiens) (UniProt Q9NQU5).
Assay [13] deals with Serine/threonine-protein kinase pim-1 (Homo sapiens) (UniProt P11309).
Assay [14] concerns the target Serine/threonine-protein kinase pim-2 (Homo sapiens, UniProt Q9P1W9).
Assay [15] deals with Serine/threonine-protein kinase PLK1 (Homo sapiens) (UniProt P53350).
The target in assay [16] is T1, Serine/threonine-protein kinase PLK4 (Homo sapiens) (UniProt O00444).
T1 sequence (whole entry): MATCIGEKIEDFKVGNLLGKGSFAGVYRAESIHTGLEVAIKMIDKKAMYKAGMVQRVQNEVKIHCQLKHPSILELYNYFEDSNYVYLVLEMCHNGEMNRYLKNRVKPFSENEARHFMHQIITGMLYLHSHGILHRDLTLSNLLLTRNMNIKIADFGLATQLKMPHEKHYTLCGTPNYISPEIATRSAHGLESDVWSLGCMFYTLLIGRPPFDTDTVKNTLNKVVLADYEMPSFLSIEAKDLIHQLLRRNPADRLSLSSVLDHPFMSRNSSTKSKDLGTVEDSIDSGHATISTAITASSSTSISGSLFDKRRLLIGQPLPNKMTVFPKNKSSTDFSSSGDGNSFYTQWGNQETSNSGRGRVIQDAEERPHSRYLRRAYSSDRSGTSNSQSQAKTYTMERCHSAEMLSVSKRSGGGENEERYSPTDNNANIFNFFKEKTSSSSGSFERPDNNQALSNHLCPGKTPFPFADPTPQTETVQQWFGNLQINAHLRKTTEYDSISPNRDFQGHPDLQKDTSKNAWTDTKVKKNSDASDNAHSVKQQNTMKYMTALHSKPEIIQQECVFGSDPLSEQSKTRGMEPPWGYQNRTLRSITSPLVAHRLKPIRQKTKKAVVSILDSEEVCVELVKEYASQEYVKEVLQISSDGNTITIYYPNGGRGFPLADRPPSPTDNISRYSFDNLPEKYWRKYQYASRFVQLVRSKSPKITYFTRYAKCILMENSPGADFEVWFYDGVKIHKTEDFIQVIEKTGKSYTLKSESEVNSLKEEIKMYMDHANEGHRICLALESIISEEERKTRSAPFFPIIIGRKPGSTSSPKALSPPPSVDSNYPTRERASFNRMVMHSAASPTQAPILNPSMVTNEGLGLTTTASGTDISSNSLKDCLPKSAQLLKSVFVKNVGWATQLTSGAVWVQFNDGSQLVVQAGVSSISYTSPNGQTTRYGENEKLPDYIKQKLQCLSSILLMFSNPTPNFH

The target in assay [17] is Serine/threonine-protein kinase 10 (Homo sapiens) (UniProt O94804).
Assay [18] concerns the target T2, Serine/threonine-protein kinase 17A (Homo sapiens) (UniProt Q9UEE5).
T2 sequence (whole entry): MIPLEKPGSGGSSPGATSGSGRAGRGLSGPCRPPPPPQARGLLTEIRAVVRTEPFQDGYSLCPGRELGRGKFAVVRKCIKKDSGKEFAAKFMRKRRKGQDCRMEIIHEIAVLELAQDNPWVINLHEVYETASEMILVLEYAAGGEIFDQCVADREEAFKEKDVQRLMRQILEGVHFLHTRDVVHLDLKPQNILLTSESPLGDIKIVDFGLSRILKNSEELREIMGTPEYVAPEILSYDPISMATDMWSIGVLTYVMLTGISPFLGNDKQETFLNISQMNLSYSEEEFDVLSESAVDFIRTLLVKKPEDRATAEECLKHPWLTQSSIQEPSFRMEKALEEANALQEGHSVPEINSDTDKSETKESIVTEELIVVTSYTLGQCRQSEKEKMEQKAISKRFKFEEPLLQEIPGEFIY

Assay [19] deals with Serine/threonine-protein kinase 26 (Homo sapiens) (UniProt Q9P289).
Assay [20] concerns the target T3, Serine/threonine-protein kinase VRK3 (Homo sapiens) (UniProt Q8IV63).
T3 sequence (whole entry): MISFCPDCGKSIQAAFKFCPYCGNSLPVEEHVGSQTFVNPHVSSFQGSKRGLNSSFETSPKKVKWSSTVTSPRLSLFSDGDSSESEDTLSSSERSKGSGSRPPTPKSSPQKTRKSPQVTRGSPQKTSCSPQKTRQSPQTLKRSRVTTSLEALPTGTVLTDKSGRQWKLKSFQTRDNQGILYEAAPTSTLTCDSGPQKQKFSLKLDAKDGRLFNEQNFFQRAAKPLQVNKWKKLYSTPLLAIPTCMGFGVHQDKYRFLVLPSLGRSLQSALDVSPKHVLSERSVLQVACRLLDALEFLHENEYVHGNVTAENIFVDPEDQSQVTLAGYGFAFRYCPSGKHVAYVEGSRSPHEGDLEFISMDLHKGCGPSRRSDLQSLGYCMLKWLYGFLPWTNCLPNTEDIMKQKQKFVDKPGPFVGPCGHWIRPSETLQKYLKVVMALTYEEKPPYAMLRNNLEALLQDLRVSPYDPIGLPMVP

Chain of Casein kinase I isoform gamma-2 (Homo sapiens) (P78368 whole entry, looked up, canonical isoform): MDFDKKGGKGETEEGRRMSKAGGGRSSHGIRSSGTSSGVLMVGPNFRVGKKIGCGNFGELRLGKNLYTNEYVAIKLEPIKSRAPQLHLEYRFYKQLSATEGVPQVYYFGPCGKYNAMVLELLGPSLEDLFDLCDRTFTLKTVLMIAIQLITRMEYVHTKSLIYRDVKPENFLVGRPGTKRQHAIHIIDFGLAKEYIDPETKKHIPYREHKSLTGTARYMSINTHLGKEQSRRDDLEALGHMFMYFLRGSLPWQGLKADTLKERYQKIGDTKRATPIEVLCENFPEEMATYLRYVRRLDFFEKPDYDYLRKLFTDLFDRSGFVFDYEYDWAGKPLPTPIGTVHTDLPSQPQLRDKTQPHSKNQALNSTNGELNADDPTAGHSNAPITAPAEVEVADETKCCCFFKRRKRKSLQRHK
Chain of Calcium/calmodulin-dependent protein kinase type II subunit alpha (Homo sapiens) (Q9UQM7 whole entry): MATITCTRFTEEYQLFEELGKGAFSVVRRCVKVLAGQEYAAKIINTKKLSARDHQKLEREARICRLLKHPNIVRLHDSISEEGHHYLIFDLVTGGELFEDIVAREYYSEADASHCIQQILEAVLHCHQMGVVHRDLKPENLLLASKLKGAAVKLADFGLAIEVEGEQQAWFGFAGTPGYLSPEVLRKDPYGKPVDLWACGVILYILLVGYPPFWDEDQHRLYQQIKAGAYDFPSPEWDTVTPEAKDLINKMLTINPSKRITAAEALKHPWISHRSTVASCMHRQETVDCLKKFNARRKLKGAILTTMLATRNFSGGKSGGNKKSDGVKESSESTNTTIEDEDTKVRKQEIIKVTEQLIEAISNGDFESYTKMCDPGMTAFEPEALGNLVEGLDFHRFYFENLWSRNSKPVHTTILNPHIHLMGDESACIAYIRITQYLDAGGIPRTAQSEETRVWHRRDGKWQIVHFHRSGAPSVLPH
Chain of Serine/threonine-protein kinase pim-1 (Homo sapiens) (P11309 whole entry, looked up): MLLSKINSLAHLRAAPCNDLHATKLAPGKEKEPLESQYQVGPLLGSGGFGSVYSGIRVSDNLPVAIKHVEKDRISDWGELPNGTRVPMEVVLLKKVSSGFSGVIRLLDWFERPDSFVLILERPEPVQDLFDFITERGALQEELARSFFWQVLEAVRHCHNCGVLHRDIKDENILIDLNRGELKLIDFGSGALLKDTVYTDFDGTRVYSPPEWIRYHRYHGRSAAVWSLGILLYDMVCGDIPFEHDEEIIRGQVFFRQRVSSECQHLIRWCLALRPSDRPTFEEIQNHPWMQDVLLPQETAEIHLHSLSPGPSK
Chain of Serine/threonine-protein kinase Chk2 (O96017 whole entry): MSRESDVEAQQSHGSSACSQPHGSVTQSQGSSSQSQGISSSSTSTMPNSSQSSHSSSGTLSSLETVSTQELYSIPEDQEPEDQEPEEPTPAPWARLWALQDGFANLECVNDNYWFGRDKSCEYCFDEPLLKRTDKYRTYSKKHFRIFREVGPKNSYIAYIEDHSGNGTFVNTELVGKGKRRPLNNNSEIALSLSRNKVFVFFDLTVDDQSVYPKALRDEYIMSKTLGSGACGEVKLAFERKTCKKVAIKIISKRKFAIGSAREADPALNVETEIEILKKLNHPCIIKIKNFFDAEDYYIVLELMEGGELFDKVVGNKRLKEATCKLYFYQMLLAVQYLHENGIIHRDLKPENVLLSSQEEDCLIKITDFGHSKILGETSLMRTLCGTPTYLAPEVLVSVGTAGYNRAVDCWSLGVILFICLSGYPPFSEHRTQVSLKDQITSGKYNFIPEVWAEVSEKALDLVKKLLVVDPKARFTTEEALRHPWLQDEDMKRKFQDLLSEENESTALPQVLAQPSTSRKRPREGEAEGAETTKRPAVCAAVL
Chain of Serine/threonine-protein kinase 10 (Homo sapiens) (O94804 whole entry, looked up): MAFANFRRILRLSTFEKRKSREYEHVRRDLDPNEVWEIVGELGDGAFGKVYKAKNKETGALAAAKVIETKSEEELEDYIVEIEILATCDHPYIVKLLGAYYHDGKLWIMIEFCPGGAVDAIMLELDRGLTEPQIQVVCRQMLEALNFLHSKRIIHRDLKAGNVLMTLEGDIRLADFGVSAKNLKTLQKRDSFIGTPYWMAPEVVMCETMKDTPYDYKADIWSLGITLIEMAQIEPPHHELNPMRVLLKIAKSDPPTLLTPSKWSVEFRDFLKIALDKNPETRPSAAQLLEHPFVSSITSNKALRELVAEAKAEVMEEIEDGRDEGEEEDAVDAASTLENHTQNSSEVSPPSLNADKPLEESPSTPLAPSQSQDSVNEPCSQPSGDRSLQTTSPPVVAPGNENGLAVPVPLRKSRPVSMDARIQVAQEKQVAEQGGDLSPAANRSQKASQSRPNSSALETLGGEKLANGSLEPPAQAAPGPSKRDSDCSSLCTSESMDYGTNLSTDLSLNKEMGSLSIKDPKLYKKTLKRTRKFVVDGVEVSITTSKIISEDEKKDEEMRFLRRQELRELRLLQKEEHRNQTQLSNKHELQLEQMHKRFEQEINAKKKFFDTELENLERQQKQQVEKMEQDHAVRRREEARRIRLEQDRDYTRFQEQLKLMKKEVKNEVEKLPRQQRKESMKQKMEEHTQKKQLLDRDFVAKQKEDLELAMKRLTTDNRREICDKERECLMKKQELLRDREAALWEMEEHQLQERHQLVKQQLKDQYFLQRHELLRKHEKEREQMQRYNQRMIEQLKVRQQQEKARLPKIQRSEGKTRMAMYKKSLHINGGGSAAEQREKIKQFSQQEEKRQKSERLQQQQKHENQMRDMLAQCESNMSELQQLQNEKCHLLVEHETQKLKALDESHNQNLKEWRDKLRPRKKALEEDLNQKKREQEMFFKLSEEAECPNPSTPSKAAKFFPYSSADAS
Chain of Serine/threonine-protein kinase PLK1 (Homo sapiens) (P53350 whole entry): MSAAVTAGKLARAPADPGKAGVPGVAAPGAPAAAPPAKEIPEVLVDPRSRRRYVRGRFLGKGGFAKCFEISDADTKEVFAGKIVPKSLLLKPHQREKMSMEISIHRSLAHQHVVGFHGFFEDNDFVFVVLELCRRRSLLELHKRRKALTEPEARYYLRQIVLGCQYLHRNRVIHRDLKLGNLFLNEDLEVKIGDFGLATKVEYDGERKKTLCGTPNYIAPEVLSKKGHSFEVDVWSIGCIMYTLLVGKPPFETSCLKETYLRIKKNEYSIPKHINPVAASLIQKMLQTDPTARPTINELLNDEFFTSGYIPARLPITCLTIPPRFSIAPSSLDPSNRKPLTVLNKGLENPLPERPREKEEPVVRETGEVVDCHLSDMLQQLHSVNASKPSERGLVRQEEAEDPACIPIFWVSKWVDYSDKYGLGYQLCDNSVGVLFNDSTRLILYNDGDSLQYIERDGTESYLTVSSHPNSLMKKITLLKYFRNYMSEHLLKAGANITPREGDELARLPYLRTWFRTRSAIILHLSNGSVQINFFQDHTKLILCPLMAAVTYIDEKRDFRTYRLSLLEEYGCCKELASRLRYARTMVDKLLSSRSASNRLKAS
Chain of Casein kinase I isoform gamma-3 (Homo sapiens) (Q9Y6M4 whole entry, looked up, canonical isoform): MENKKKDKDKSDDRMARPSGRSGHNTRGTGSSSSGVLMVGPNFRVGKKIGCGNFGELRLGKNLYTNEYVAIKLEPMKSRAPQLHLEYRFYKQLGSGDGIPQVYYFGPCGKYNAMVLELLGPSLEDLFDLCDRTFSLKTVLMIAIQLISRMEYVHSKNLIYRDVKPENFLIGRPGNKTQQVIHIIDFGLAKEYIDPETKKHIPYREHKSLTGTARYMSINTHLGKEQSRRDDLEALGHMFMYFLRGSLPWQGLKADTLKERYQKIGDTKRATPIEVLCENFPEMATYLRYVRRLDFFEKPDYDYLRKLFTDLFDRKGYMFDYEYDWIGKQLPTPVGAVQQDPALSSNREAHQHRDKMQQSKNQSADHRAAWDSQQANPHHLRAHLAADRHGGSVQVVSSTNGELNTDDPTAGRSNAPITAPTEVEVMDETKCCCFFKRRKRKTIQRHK
Chain of Cyclin-dependent kinase-like 1 (Homo sapiens) (Q00532 whole entry): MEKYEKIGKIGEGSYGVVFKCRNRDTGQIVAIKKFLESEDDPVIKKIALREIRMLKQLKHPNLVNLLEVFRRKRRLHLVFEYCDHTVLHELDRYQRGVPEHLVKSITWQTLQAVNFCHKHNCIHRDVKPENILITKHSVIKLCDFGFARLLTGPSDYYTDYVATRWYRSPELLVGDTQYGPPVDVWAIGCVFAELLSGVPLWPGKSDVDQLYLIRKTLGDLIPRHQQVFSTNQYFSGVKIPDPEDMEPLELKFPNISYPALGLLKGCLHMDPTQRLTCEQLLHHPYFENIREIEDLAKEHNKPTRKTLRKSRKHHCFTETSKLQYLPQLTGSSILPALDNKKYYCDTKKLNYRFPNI
Chain of 5'-AMP-activated protein kinase catalytic subunit alpha-2 (Homo sapiens) (P54646 whole entry, looked up): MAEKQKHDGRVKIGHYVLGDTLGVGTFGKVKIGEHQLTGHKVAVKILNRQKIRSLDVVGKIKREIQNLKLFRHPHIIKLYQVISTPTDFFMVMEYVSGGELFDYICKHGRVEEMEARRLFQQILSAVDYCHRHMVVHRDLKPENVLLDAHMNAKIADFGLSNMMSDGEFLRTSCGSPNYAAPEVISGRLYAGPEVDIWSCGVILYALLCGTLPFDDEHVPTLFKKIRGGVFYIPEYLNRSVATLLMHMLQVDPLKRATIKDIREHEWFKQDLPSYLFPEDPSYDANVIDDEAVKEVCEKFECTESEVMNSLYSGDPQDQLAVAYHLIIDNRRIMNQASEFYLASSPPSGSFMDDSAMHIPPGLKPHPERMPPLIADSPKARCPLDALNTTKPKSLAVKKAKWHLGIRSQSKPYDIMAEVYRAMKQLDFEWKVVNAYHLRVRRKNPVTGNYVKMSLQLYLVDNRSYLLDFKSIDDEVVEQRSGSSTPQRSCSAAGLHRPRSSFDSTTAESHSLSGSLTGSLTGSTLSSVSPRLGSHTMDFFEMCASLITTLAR
Chain of Serine/threonine-protein kinase pim-2 (Q9P1W9 whole entry, looked up): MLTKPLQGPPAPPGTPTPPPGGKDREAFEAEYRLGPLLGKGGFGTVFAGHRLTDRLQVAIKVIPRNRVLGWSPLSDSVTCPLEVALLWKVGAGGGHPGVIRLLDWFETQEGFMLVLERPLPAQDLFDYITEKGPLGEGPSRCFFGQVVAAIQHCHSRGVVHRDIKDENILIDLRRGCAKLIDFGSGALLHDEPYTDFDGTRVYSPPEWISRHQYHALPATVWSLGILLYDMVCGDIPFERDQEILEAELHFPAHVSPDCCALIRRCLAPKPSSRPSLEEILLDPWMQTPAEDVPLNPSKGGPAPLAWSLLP

As to `N#CC(C#N)=Cc1ccc(O)c(O)c1` [TYRPHOSTIN 23], the ΔTm is -0.1 °C in assay [1]; 0.2 °C in assay [2]; 1.1 °C in assay [3]; -0.1 °C in assay [4]; 0.7 °C in assay [5]; 0.4 °C in assay [6]. For the same compound, the thermal shift (ΔTm) in [7] was 0.4 °C; in [8], 0.3 °C; in assay [9], 0.1 °C; in assay [10], 0.1 °C; in [11], 0.5 °C; in [12] it was -0.2 °C. Besides, the thermal shift (ΔTm) in [13] is 1.5 °C; in assay [14], 1 °C; in [15], 0.4 °C; in [16] it was 0.7 °C; in [17], 0.5 °C; in assay [18] it was 0.9 °C. For the same compound, the shift in melting temperature (ΔTm) was 0.1 °C in [19] and -0.2 °C in [20].

As for `Cc1c2ccncc2c(C)c2c1[nH]c1ccccc12` [ELLIPTECINE], the ΔTm turned out to be 1.8 °C in [1]; 2.2 °C in [2]; 1.6 °C in [3]; 0.7 °C in assay [4]; 2 °C in [5]; 4.2 °C in [6]. The shift in melting temperature (ΔTm) is 0.2 °C in [7]; 0.7 °C in assay [8]; 2.3 °C in assay [9]; 1.5 °C in assay [10]; 0.9 °C in assay [11]; -0.5 °C in [12]. Further, the thermal shift (ΔTm) in assay [13] worked out at 4.8 °C; in assay [14], 7.1 °C; in [15] it was 3.9 °C; in assay [16], 3.3 °C; in assay [17] it was 1.9 °C; in assay [18], 0.8 °C. Moreover, the shift in melting temperature (ΔTm) in [19] was 4.6 °C; in assay [20] it was 1.3 °C.

With `Cl.Cn1cc(C2=C(c3ccc4cc5n(c4c3)CCC(CN)C5)C(=O)NC2=O)c2ccccc21` (stereo not given), the ΔTm in [1] is -0.4 °C; in assay [2], 1.4 °C; in assay [3], 2.4 °C; in assay [4] it was 0.2 °C; in assay [5], 1 °C; in assay [6], 0 °C. Moreover, the ΔTm in assay [7] is 0.4 °C; in assay [8] it was 0.6 °C; in assay [9], -2.8 °C; in assay [10], 0.7 °C; in assay [11] it was 0.1 °C; in [12], 0.7 °C. Besides, the ΔTm was found to be 6.3 °C in assay [13]; 3.1 °C in [14]; 0.1 °C in assay [15]; 0.1 °C in [16]; 5.3 °C in assay [17]; 3.5 °C in [18]. Also, the ΔTm in assay [19] is 0.3 °C; in assay [20], 0.6 °C.

As to `COc1cc(OC)c(/C=C2\C(=O)Nc3ccccc32)c(OC)c1`, the shift in melting temperature (ΔTm) in [1] is -0.1 °C; in [2] it was -0.1 °C; in assay [3], 0.5 °C; in [4], -0.5 °C; in [5], -0.7 °C; in [6], 0 °C. Besides, the ΔTm is 0.7 °C in assay [7]; 0.5 °C in [8]; 0.5 °C in assay [9]; -0.2 °C in [10]; -0.3 °C in assay [11]; 0 °C in [12]. Besides, the ΔTm in assay [13] is -1 °C; in assay [14], 0.5 °C; in [15], -0.7 °C; in assay [16], 0.3 °C; in assay [17] it was 0.8 °C; in assay [18], -0.3 °C. Moreover, the shift in melting temperature (ΔTm) in assay [19] amounted to 0 °C; in [20] it was 0.7 °C.

For `C[S+]([O-])c1ccc(CSc2nc(-c3ccc(F)cc3)c(-c3ccncc3)[nH]2)cc1` (stereo not given), the shift in melting temperature (ΔTm) in assay [1] was -0.3 °C; in assay [2], -0.1 °C; in assay [3], 0.5 °C; in [4], 0.2 °C; in assay [5], -0.4 °C; in assay [6] it was -0.1 °C. For the same compound, the shift in melting temperature (ΔTm) in assay [7] is 0.9 °C; in assay [8] it was -0.1 °C; in assay [9] it was 0.2 °C; in [10], -0.2 °C; in [11], 0.4 °C; in assay [12] it was 0 °C. For the same compound, the ΔTm in [13] was -2 °C; in assay [14], 0.4 °C; in assay [15], -0.2 °C; in [16] it was 0.3 °C; in [17] it was 0.8 °C; in assay [18], 0 °C. The ΔTm in assay [19] is 0 °C; in [20], -0.8 °C.

Turning to `COc1cc(C[C@H]2C(=O)OC[C@@H]2Cc2ccc(OC)c(OC)c2)ccc1O` [ARCTIGENIN], the ΔTm in [1] is -0.9 °C; in assay [2] it was 0.1 °C; in assay [3], 0.6 °C; in [4], -0.1 °C; in assay [5], -0.3 °C; in assay [6] it was 0 °C. Further, the ΔTm was 0.1 °C in assay [7]; 0.2 °C in [8]; -0.1 °C in assay [9]; 0.2 °C in [10]; 0.1 °C in assay [11]; 0.1 °C in assay [12]. Moreover, the shift in melting temperature (ΔTm) in assay [13] is -0.3 °C; in assay [14] it was 0 °C; in assay [15], 0.1 °C; in assay [16] it was 0 °C; in assay [17], 0.7 °C; in assay [18] it was 1.4 °C. The ΔTm in [19] is 0.2 °C; in assay [20], 0.4 °C.

As to `COc1ccc2c(c[n+](C)c3c4cc5c(cc4ccc23)OCO5)c1OC` [CHELERYTHRINE CHLORIDE], the ΔTm in [1] was -1.3 °C; in assay [2], 0.6 °C; in [3], 0.2 °C; in assay [4], -3.5 °C; in [5], -3.9 °C; in assay [6], -1 °C. The shift in melting temperature (ΔTm) is -0.2 °C in assay [7]; 0.2 °C in assay [8]; 0.3 °C in assay [9]; -0.3 °C in assay [10]; -1.7 °C in assay [11]; -3.3 °C in assay [12]. The shift in melting temperature (ΔTm) in assay [13] is -4.4 °C; in assay [14], -3.1 °C; in assay [15], 0 °C; in assay [16], -3.1 °C; in assay [17], -1.1 °C; in assay [18], -0.8 °C. In addition, the ΔTm in [19] is -4.2 °C; in [20], -0.6 °C.

In general, ΔTm refers to the change in melting temperature against a reference sample.
